The structures appear in SMILES notation.

In assay [1] the test system is vraSR promoter (Pvra-lux reporter in strain 923). Nature of the assay: Primary screen, relative luminescence (vraSR expression). The conditions noted are these: primary screen, compound 10 μM with oxacillin 2 μg/mL; <0.50 = vraSR repressed = hit.
Assay [2] concerns test strain 923 pPvra-lux (USA300 MRSA). Kind of assay: Primary screen, relative growth in presence of oxacillin. Conditions: compound 10 μM with oxacillin 2 μg/mL, absorbance 24 h, <0.50 = dead cells = hit.

`Cc1ccc(-c2nnc(NC(=O)c3ccc(C(=O)c4ccccc4)cc3)o2)c(C)c1` [F2518-168]: the “RL avg (relative luminescence)” value in assay [1] is listed as −0.07. Further, in assay [2], the “RG avg (relative growth)” value is −0.03.
In the same order, the values of `COc1cccc2cc(C(=O)Nc3nnc(-c4ccc(Br)s4)o3)oc12` [F5093-196] are −0.01 and −0.01.
In the same order, the values of `Cc1ccc(C)c(-c2nnc(NC(=O)c3cc(Cl)sc3Cl)o2)c1` [F2518-360] are 0.13 and 0.04.
In the same order, the values of `CSc1ccccc1-c1nnc(NC(=O)c2ccc(F)cc2)o1` [F2645-12] are 0.51 and 0.41.
As for `COc1cccc2cc(-c3nnc(NC(=O)c4nc5ccccc5s4)o3)oc12` [F2273-37], the “RL avg (relative luminescence)” value in assay [1] worked out at 0.09. Further, in assay [2], the “RG avg (relative growth)” value is given as 0.09.
On to `COc1cc(-c2nnc(NC(=O)c3cccc(C(F)(F)F)c3)o2)cc(OC)c1OC` [F2517-37], for which, in assay [1], the “RL avg (relative luminescence)” value was −0.06. Besides, the “RG avg (relative growth)” value in assay [2] is −0.02.
The corresponding values for `COc1cc(-c2nnc(NC(=O)c3ccc(S(=O)(=O)N(Cc4ccccc4)C(C)C)cc3)o2)cc(OC)c1OC` [F0559-328] are 0.01 and 0.15.
Consider `COc1cc(-c2nnc(NC(=O)c3cccc(Br)c3)o2)cc(OC)c1OC` [F2517-14], for which the “RL avg (relative luminescence)” value in assay [1] is on record as −0.07. For the same compound, the “RG avg (relative growth)” value in assay [2] was −0.03.
As to `O=C(Nc1nnc(-c2ccccc2Cl)o1)c1cccc(Br)c1` [F1374-14], in assay [1], the “RL avg (relative luminescence)” value is given as 0.38. Besides, the “RG avg (relative growth)” value in assay [2] is reported as 0.24.
The corresponding values for `O=C(Nc1nnc(-c2cccs2)o1)c1sc2ccccc2c1Cl` [F1374-988] are 0.37 and 0.03.
The corresponding values for `CCCCN(CC)S(=O)(=O)c1ccc(C(=O)Nc2nnc(-c3ccccc3Cl)o2)cc1` [F0559-36] are −0.16 and −0.08.
For `COc1ccccc1-c1nnc(NC(=O)c2cccc(Br)c2)o1` [F1374-224], the “RL avg (relative luminescence)” value in assay [1] worked out at 0.34. For the same compound, the “RG avg (relative growth)” value in assay [2] was −0.01.
In the same order, the values of `O=C(Nc1nnc(-c2ccc3c(c2)CCCC3)o1)c1cc(Cl)sc1Cl` [F0608-668] are −0.06 and 0.02.
In the same order, the values of `O=C(Nc1nnc(-c2ccc(F)cc2)o1)c1ccc2c(c1)CCCC2` [F1374-172] are 0.39 and 0.04.
`Cc1ccc(C)c(-c2nnc(NC(=O)c3ccc(S(=O)(=O)N4CC(C)OC(C)C4)cc3)o2)c1` (centres unmarked) [F2518-334]: the “RL avg (relative luminescence)” value in assay [1] is recorded as −0.04. Further, in assay [2], the “RG avg (relative growth)” value came out at 0.00.
The corresponding values for `O=C(Nc1nnc(-c2ccc(Cl)s2)o1)c1ccc(Cl)cc1` [F1374-1055] are 0.50 and 0.02.
The corresponding values for `CCOc1ccc(-c2nnc(NC(=O)c3c(-c4ccccc4Cl)noc3C)o2)cc1` [F2517-329] are −0.11 and −0.02.
In the same order, the values of `Cc1ccc(Cc2nnc(NC(=O)c3ccc(S(=O)(=O)N(C)c4ccccc4)cc3)o2)c(C)c1` [F2368-431] are −0.06 and −0.02.
Consider `COc1cc(OC)cc(-c2nnc(NC(=O)c3ccc(Cl)cc3Cl)o2)c1` [F1374-651], for which the “RL avg (relative luminescence)” value in assay [1] is on record as 0.38. Moreover, the “RG avg (relative growth)” value in assay [2] was 0.04.
The corresponding values for `O=C(Nc1nnc(-c2cc(Cl)sc2Cl)o1)c1ccc2ncsc2c1` [F1374-2676] are 0.34 and 0.01.
On to `COc1cccc2cc(-c3nnc(NC(=O)c4cccc(F)c4)o3)oc12` [F2273-13], for which, in assay [1], the “RL avg (relative luminescence)” value is listed as −0.06. Besides, the “RG avg (relative growth)” value in assay [2] is given as −0.03.
Consider `COc1cccc2cc(-c3nnc(NC(=O)c4ccc5ncsc5c4)o3)oc12` [F2273-114], for which, in assay [1], the “RL avg (relative luminescence)” value worked out at 0.26. Moreover, the “RG avg (relative growth)” value in assay [2] is given as 0.26.
Regarding `O=C(Nc1nnc(-c2ccc(Cl)cc2)o1)c1cccs1` [F1374-757], the “RL avg (relative luminescence)” value in assay [1] turned out to be 0.29. Moreover, in assay [2], the “RG avg (relative growth)” value was found to be 0.02.
The corresponding values for `O=C(Nc1nnc(-c2cc(Cl)ccc2Cl)o1)c1cc(Cl)ccc1Cl` [F2518-49] are −0.05 and −0.03.
The corresponding values for `O=C(Nc1nnc(-c2ccccc2Cl)o1)c1sc2ccccc2c1Cl` [F1374-43] are 0.35 and 0.04.
With `O=C(Nc1nnc(-c2ccc(Br)cc2)o1)c1ccc2ncsc2c1` [F2518-558], in assay [1], the “RL avg (relative luminescence)” value is recorded as −0.08. Besides, in assay [2], the “RG avg (relative growth)” value is listed as −0.02.
The corresponding values for `COc1cccc2cc(C(=O)Nc3nnc(-c4ccc(Cl)cc4Cl)o3)oc12` [F2518-1563] are −0.16 and 0.00.
On to `O=C(Nc1nnc(-c2ccc(Cl)s2)o1)c1ccccc1Oc1ccccc1` [F1374-1149], for which the “RL avg (relative luminescence)” value in assay [1] amounted to 0.28. In assay [2], the “RG avg (relative growth)” value was −0.01.
The corresponding values for `O=C(Nc1nnc(-c2ccc(Br)cc2)o1)c1cc(Cl)sc1Cl` [F2518-504] are 0.00 and 0.01.
In the same order, the values of `CC1CCCCN1S(=O)(=O)c1ccc(C(=O)Nc2nnc(C3COc4ccccc4O3)o2)cc1` (centres unmarked) [F0608-741] are −0.04 and −0.02.
The corresponding values for `COc1cc(OC)cc(-c2nnc(NC(=O)c3ccc(S(=O)(=O)N(CC(C)C)CC(C)C)cc3)o2)c1` [F0559-264] are −0.10 and −0.04.
`COc1cccc(-c2nnc(NC(=O)c3ccc(S(=O)(=O)N(Cc4ccccc4)C(C)C)cc3)o2)c1` [F0559-178]: the “RL avg (relative luminescence)” value in assay [1] was −0.07. In addition, in assay [2], the “RG avg (relative growth)” value was −0.06.
On to `O=C(Nc1nnc(-c2cccnc2)o1)c1cccc(Br)c1` [F0608-950], for which, in assay [1], the “RL avg (relative luminescence)” value is −0.14. Also, the “RG avg (relative growth)” value in assay [2] is −0.01.
As to `CSc1ccc(-c2nnc(NC(=O)c3ccc4c(c3)CCCC4)o2)cc1` [F2645-379], in assay [1], the “RL avg (relative luminescence)” value amounted to 0.37. In addition, the “RG avg (relative growth)” value in assay [2] amounted to 0.04.
In the same order, the values of `CCOc1cc(-c2nnc(NC(=O)C(c3ccccc3)c3ccccc3)o2)cc(OCC)c1OCC` [F2517-165] are −0.07 and 0.31.
The corresponding values for `O=C(Nc1nnc(-c2ccc(F)cc2)o1)c1ccc(F)cc1` [F1374-116] are 0.34 and 0.00.
The corresponding values for `O=C(Nc1nnc(-c2ccc3c(c2)OCCO3)o1)c1cc(-c2ccccc2)nc2ccccc12` [F0608-46] are −0.10 and −0.06.
As for `O=C(Nc1nnc(-c2ccc3c(c2)CCCC3)o1)c1ccc(S(=O)(=O)N2CCOCC2)cc1` [F0608-560], the “RL avg (relative luminescence)” value in assay [1] is −0.07. In assay [2], the “RG avg (relative growth)” value is recorded as −0.07.
Take `Cc1ccc(C)c(-c2nnc(NC(=O)c3cccc(F)c3)o2)c1` [F2518-301]: in assay [1], the “RL avg (relative luminescence)” value was −0.10. Also, the “RG avg (relative growth)” value in assay [2] is −0.01.
The corresponding values for `O=C(Nc1nnc(-c2cc(Cl)ccc2Cl)o1)c1ccc(C(=O)c2ccccc2)cc1` [F2518-24] are 0.06 and −0.01.
For `O=C(Nc1nnc(-c2ccc(Br)cc2)o1)c1cccc(C(F)(F)F)c1` [F2518-477], the “RL avg (relative luminescence)” value in assay [1] is recorded as 0.03. For the same compound, the “RG avg (relative growth)” value in assay [2] is listed as 0.01.
In the same order, the values of `COc1cccc2cc(-c3nnc(NC(=O)c4ccc(S(=O)(=O)N(C)C)cc4)o3)oc12` [F2273-29] are 0.29 and 0.16.
In the same order, the values of `CC1CN(S(=O)(=O)c2ccc(C(=O)Nc3nnc(-c4ccc(Cl)s4)o3)cc2)CC(C)O1` (centres unmarked) [F0559-377] are −0.09 and −0.08.
In the same order, the values of `O=C(COc1ccc(Cl)cc1)Nc1nnc(-c2ccc(Br)cc2)o1` [F2518-483] are −0.04 and −0.02.
For the compound `O=C(Nc1nnc(-c2cc(Cl)ccc2Cl)o1)c1ccc2c(c1)CCCC2` [F2518-85], the “RL avg (relative luminescence)” value in assay [1] is listed as −0.05. Besides, in assay [2], the “RG avg (relative growth)” value was 0.00.
In the same order, the values of `O=C(Nc1nnc(-c2ccco2)o1)c1ccc(-c2ccccc2)cc1` [F0608-410] are −0.07 and −0.07.
In the same order, the values of `CC(C)c1ccc(Cc2nnc(NC(=O)c3ccc4ncsc4c3)o2)cc1` [F2368-1143] are −0.09 and −0.01.
In the same order, the values of `O=C(Nc1nnc(-c2ccc(Cl)s2)o1)c1cccc(F)c1` [F1374-1062] are 0.46 and 0.01.
Regarding `Cc1ccc(C)c(-c2nnc(NC(=O)c3cccc(Br)c3)o2)c1` [F2518-303], the “RL avg (relative luminescence)” value in assay [1] is −0.02. The “RG avg (relative growth)” value in assay [2] turned out to be 0.00.
The corresponding values for `COc1cc(-c2nnc(NC(=O)c3ccc(S(=O)(=O)N4CCCc5ccccc54)cc3)o2)cc(OC)c1OC` [F0559-320] are −0.08 and 0.24.
For `O=C(Nc1nnc(-c2cc(Cl)sc2Cl)o1)c1cccc(C(F)(F)F)c1` [F1374-2671], in assay [1], the “RL avg (relative luminescence)” value turned out to be 0.35. In addition, in assay [2], the “RG avg (relative growth)” value was 0.03.
In the same order, the values of `O=C(Nc1nnc(-c2ccccn2)o1)c1cc(Cl)cc(Cl)c1` [F0608-928] are 0.07 and −0.01.

(Values after patent US9675592B2, “Methods and compositions for bacteria infections” (priority 2013, dated 2017).)
